# The supplement of paper PMC10307832
# Experiments:
# Experiment in all cases: relative viability (nuclei count vs DMSO), 5 days (fraction); higher = more cells survive
# IMD-0354 + Lapatinib = compound: O=C(Nc1cc(C(F)(F)F)cc(C(F)(F)F)c1)c1cc(Cl)ccc1O [IMD-0354] + CS(=O)(=O)CCNCc1ccc(-c2ccc3ncnc(Nc4ccc(OCc5cccc(F)c5)c(Cl)c4)c3c2)o1 [Lapatinib] (partner 2 µM)
# Summary of the method: (§1)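 Each reported value is a median over duplicate plates. It expresses relative viability: treated-well nuclei count divided by vehicle-well nuclei count. Lung cancer cell lines in 1536-well plates were dosed by pin tool a day after seeding, alone with one drug or with a fixed anchor-drug dose plus five library-drug doses (not always all listed) in √10 steps, and nuclei were counted after 5 days.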
# CX-5461 + Alpelisib = compound: Cc1cnc(CNC(=O)c2c(=O)c3ccc(N4CCCN(C)CC4)nc3n3c2sc2ccccc23)cn1 [CX-5461] + Cc1nc(NC(=O)N2CCC[C@H]2C(N)=O)sc1-c1ccnc(C(C)(C)C(F)(F)F)c1 [Alpelisib] (partner 2 µM)
# Summary of the method: as §1
# CX-5461 + Pemetrexed = compound: Cc1cnc(CNC(=O)c2c(=O)c3ccc(N4CCCN(C)CC4)nc3n3c2sc2ccccc23)cn1 [CX-5461] + Nc1nc2[nH]cc(CCc3ccc(C(=O)N[C@@H](CCC(=O)O)C(=O)O)cc3)c2c(=O)[nH]1 [Pemetrexed] (partner 0.2 µM)
# Summary of the method: as §1
# IMD-0354 + Decitabine = compound: O=C(Nc1cc(C(F)(F)F)cc(C(F)(F)F)c1)c1cc(Cl)ccc1O [IMD-0354] + Nc1ncn([C@H]2C[C@H](O)[C@@H](CO)O2)c(=O)n1 [Decitabine] (partner 2 µM)
# Summary of the method: as §1
cell line,measurement,setting,value
UMC-11,relative viability,IMD-0354 + Lapatinib; first compound 0.04 µM,1.07
same,relative viability,IMD-0354 + Lapatinib; first compound 0.1265 µM,0.939
same,relative viability,IMD-0354 + Lapatinib; first compound 0.4 µM,0.622
same,relative viability,IMD-0354 + Lapatinib; first compound 1.265 µM,0.239
same,relative viability,IMD-0354 + Lapatinib; first compound 4 µM,0.232
same,relative viability,CX-5461 + Alpelisib; first compound 0.01 µM,0.932
same,relative viability,CX-5461 + Alpelisib; first compound 0.03162 µM,1.21
same,relative viability,CX-5461 + Alpelisib; first compound 0.1 µM,1.07
same,relative viability,CX-5461 + Alpelisib; first compound 0.3162 µM,0.956
same,relative viability,CX-5461 + Alpelisib; first compound 1 µM,0.391
same,relative viability,CX-5461 + Pemetrexed; first compound 0.01 µM,0.825
same,relative viability,CX-5461 + Pemetrexed; first compound 0.03162 µM,0.871
same,relative viability,CX-5461 + Pemetrexed; first compound 0.1 µM,0.722
same,relative viability,CX-5461 + Pemetrexed; first compound 0.3162 µM,0.763
same,relative viability,CX-5461 + Pemetrexed; first compound 1 µM,0.408
same,relative viability,IMD-0354 + Decitabine; first compound 0.04 µM,0.64
same,relative viability,IMD-0354 + Decitabine; first compound 0.1265 µM,0.646
same,relative viability,IMD-0354 + Decitabine; first compound 0.4 µM,0.522
same,relative viability,IMD-0354 + Decitabine; first compound 1.265 µM,0.174
same,relative viability,IMD-0354 + Decitabine; first compound 4 µM,0.176
